Our source for the IC50 values is publication PMC4357015, “Structure, Function and Inhibition of the Phosphoethanolamine Methyltransferases of the Human Malaria Parasites Plasmodium vivax and Plasmodium knowlesi” (Scientific Reports, 2015).

By IC50 is commonly meant the point on the concentration scale where inhibition reaches its midpoint.

This assay has as its target T1, PvPMT (Plasmodium vivax, UniProt A5K867).
T1 sequence (A5K867 1-264): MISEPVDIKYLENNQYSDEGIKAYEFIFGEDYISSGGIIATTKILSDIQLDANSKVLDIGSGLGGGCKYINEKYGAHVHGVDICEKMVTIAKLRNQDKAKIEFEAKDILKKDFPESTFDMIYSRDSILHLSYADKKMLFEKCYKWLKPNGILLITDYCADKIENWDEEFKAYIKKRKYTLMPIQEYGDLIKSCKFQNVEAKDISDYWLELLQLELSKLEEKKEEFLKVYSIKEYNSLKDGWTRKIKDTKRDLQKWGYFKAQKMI
Kind of assay: radiometric PMT transmethylation assay, inhibition of PvPMT. The assay is classed as biochemical. The settings on record: P-Etn 2 mM, SAM 1.5 mM; inhibitor 0, 100, 500, 1000 μM; read-out: IC50, inhibition of PvPMT activity. On the procedure: Figure 3 Amodiaquine (AQ) and NSC158011 inhibit the activity of PvPMT and PkPMT. Enzyme inhibition assays with different concentrations of Amodiaquine (AQ), NSC158011 and Chloroquine (CQ) were carried out at constant P-Etn (2 mM) and SAM (1.5 mM) concentrations. The activity in the absence of any drug was taken as 100% and % enzyme activity was calculated in the presence of different drug concentrations (100, 500, 1000 μM). To determine the concentration that results in 50% inhibition of enzyme activity (IC50), the data were fitted to a non-linear regression analysis in the following equation Y = 100/(1 + ([X]/IC50)), where Y is % enzyme activity and X is drug concentration using Graph pad software.
For enzyme kinetics studies recombinant histidine-tagged proteins were expressed using 1 mM IPTG for 4 h, purified using Ni-affinity purification and dialyzed. As expected, purified proteins migrated in SDS-PAGE gels at approximately 31 kDa. The purified proteins were stored in HEPES-KOH buffer (pH 7.4) at 4°C and were assayed within a month of purification. During this time, the integrity of the protein was assessed by SDS-PAGE. The kinetic properties of enzymes were assessed using radiometric assay wherein incorporation of radioactive labeled methyl donor (100nCi [methyl-^14C] SAM, Perkin elmer NEC363010UC) or (200nCi [methyl-^3H] SAM, Perkin Elmer NET155H250UC) was measured. […]

On to `CCN(CC)Cc1cc(Nc2ccnc3cc(Cl)ccc23)ccc1O` [AQ, amodiaquine], for which the IC50 was 220 µM.
